In paper PMC3156940 (Biochimica et biophysica acta, 2011):

Biological target: KirBac1.1 (His6-KirBac1.1) (Burkholderia pseudomallei, UniProt P83698)
Settings: 200 nM [3H]cholesterol, 0.1% CHAPS, pH 7.5, 37 °C, 2 h

Chain of KirBac1.1 (His6-KirBac1.1) (P83698 1-333): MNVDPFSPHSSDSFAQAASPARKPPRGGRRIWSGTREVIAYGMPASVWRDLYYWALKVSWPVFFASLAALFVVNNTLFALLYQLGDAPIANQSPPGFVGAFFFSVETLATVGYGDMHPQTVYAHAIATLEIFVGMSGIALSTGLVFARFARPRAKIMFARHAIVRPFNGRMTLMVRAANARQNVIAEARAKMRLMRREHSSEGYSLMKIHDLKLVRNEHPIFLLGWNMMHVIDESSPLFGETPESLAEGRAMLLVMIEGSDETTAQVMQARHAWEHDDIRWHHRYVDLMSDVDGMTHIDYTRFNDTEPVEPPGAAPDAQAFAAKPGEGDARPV

SMILES	competition with [3H]cholesterol
CC(C)CCC[C@@H](C)[C@H]1CC[C@H]2[C@@H]3CC=C4C[C@H](O)CC[C@]4(C)[C@H]3CC[C@]12C [epicholesterol]	epicholesterol efficiently competed with cholesterol for the channel binding
C[C@H](CCCC(C)(C)O)[C@H]1CC[C@H]2[C@@H]3CC=C4C[C@@H](O)CC[C@]4(C)[C@H]3CC[C@]12C [25-hydroxycholesterol]	25-hydroxycholesterol was a significantly weaker competitor
